How the values were obtained:
[1] = Stability at gastric pH and with digestive enzymes; format: in vitro ADME; settings: pH 2.0; enzymes 100 U/ml, 12 h, 37° C.; 0.2 mg/ml
Experimental: FIG. 1: UAS03 is a potent anti-inflammatory structural analogue of UroA and induces tight junction proteins. (A) Chemical structures of UroA, UAS03. UroA/UAS03 stability was examined in the presence of gastric pH 2.0 and digestive enzymes. UroA and UAS03 (0.2 mg/ml) were incubated with digestive enzymes (esterases and proteases, 100 U/ml) for 12 h at 37° C. and compound levels were quantified. (B) BMDMs were stimulated with LPS (50 ng/ml) without or with UroA (blue line)/UAS03 (purple line) (0.1, 1, 10, 25 and 50 μM) for 6 hours. IL-6 and TNF-α levels in supernatants were measured. (C) C57BL/6 mice (n=3-4) were pretreated with UroA (20 mg/kg) and UAS03 (20 mg/kg). After 4 hours, LPS (2 mg/kg) was injected intraperitoneally. Post 4 h of LPS administration, serum levels of IL-6 and TNF-α was measured. […] (G) The fold changes in mRNA levels of claudin 4 (Cldn4), occludin (Ocln) and Zona occludens 1 (ZO1) in HT29 cells were determined by RT PCR method. (H) UroA/UAS03 induced protein expression of Cldn4, Ocln and ZO1 in HT29 cells were determined by immunoblots and quantified by Image J software. […] The green intensity (n=15-20 cell membrane regions) was measured. […] The protein lysates were prepared from colon scrapes and subjected to immunoblots and detected the expression of the (J) Nrf2, HO1, Cldn4 and (K) AhR using appropriate antibodies as described in methods. […]

Snail transgenic mice = test: Scleroderma model in Snail transgenic mice; format: in vivo, mouse
Experimental: UAS03 attenuates Scleroderma associated vascular permeability in Snail transgenic mice. Calorimetric quantification of Evan's blue dye extracted from back skin using UV spectrophotometer. […] Animals treated with UAS03 show more than 3-fold reduction in the dye leakage (FIG. 24).
Expression for fibrosis associated genes in the back skin of the Snail transgenic mice. The mRNA levels of the Collagen 1 were measured in back skin using RT-qPCR. […] The expression in UAS03 treated group, in both males and females, were reduced. The levels were separately assessed in males and females in vehicle and drug treated animals (FIG. 25).

## Oc1ccc2c(c1)COc1cc(O)ccc1-2 [UAS03, 6H-benzo[c]chromene-3,8-diol]
[1]
  stability at gastric pH and in the presence of gastric enzymes (esterases and proteases): stable
Snail transgenic mice; Snail transgenic mice
  reduction in Evan's blue dye leakage in back skin: more than 3 fold
Snail transgenic mice; males and females, RT-qPCR
  Collagen 1 mRNA expression in back skin: reduced
